Experimental data taken from US4666936A, “Amide derivatives of 2-(p-aminobenzyl)-butyric acid and esters thereof having hypolipidemizing activity” (Medosan Industrie Biochimiche Riunite S.p.A., priority 1984, dated 1987).
Entries after “also recorded” stand apart in the source; their conditions may differ.

Key:
[1] = test system: cholesterol and triglycerides; conditions: literature, prior art; cited from earlier work
[2] = test system: hematic levels of triglycerides and total cholesterol; test: Hypolipidemizing activity in mouse made hyperlipidemic by Triton WR-1339; assay type: in vivo, mouse (Swiss); conditions: 500 mg/kg per os; for Total cholesterol, % mg / Triglycerides, % mg: serum after 18 hours fasting; for Total cholesterol, % variation / Triglycerides, % variation: vs carrier
Experimental: (§1) The preparations administered "in vivo" by oral route, comprise a 0.5% suspension of carboxymethylcellulose in a neutral pH normal physiological saline for the compounds (3), (4) and (5), while for the compounds (2) and (6) the preparation comprises a solution in NaOH (0.1N) at pH 7-7.5. The hypolipidemizing activity of the substances under test was evaluated as the ability to decrease the hematic levels of triglycerides and total cholesterol in animals made hyperlipidemic by administration of Triton (antihyperlipidemic agents, J. N. Moss, Screening Methods in Pharmacology,Ed. Robert A. Turner and P. Hebborn, volume II, Academic Press, pages 121-143). The test was carried out on two animal species: rat and mouse. Male Wistar rats and Swiss mice were used, held at a normal diet, the former weighing 200-260 g, the latter weighing about 26-30 g. The compounds (2), (3), (4), (5) and (6) and the Bezafibrate and Clofibrate of control were administered per os at a dose of 500 mg/kg, simultaneously with a 10% solution in normal saline of Triton WR-1339 endoperitoneally at a rate of 2 ml/kg body weight. After treatment, the animals were divided into lots of eight, and held fasting for 18 hours and then sacrificed. The hematic levels of triglycerides total cholesterol are measured on the serum by enzymatic methods (Test-Combination Triglycerides, Boehring Mannheim GmbH) and colorimetric methods (Test-Combination Cholesterol, Boehring Mannheim GmbH). The results on the hypolipidemizing activity of the compounds under test in rat and mouse are referred in tables I and II.

[3] = test system: hematic levels of cholesterol and triglycerides; test: Pharmacological tests of hypolipidemizing activity, overall statements; assay type: in vivo, rat and mouse; conditions: compared with Bezafibrate and Clofibrate
Experimental: as §1

[4] = test system: hematic levels of triglycerides and total cholesterol; test: Hypolipidemizing activity in rat made hyperlipidemic by Triton WR-1339; assay type: in vivo, rat (male Wistar); conditions: 500 mg/kg per os; for Total cholesterol, % mg / Triglycerides, % mg: serum after 18 hours fasting; for Total cholesterol, % variation / Triglycerides, % variation: vs carrier
Experimental: as §1

[5] = Acute toxicity (DL50) in mouse, oral route; conditions: in vivo, oral (os), 15 days observation
Experimental: DL50 was evaluated after administration of the compounds (2), (3), (4), (5) and (6) alone in male albine Swiss mice weighing 27±3 g, using the oral route. The animals were held under observation by checking the mortality and pain signs, if any, for 15 days.
The DL50 values (mg/kg) are referred in table III.

cholesterol = conditions: literature, appears to occur possibly; cited from earlier work
[6] = test system: hepatic enzymes involved in the biosynthesis de novo of the triglycerides; conditions: literature, appears to occur possibly; cited from earlier work
[7] = mouse, os; value as reported in literature: G. Metz et al, Arzneimittel Forschung, 27: 1173; 1977; cited from earlier work

SMILES	hypolipidemizing activity (in words) [1]	Total cholesterol, % mg [2]	Triglycerides, % mg [2]	Total cholesterol, % variation [2]	Triglycerides, % variation [2]	hypocholesterolemizing and hypolipidemizing activity (in words) [3]	Total cholesterol, % mg [4]	Triglycerides, % mg [4]	Total cholesterol, % variation [4]	Triglycerides, % variation [4]	LD50 [5]	cholesterol absorption at the intestinal level (cholesterol)	excretion of cholesterol with the bile (cholesterol)	inhibiting activity in vivo on hepatic enzymes [6]	DL50 [7]
Cc1ccc(C)n1-c1ccc(CC(=O)Nc2nccs2)cc1	hypolipidemizing activity lower than that of Bezafibrate														
O=C1NC(=O)c2ccccc21 [phthalimide]	hypocholesterolemizing activity														
CCOC(=O)C(CC)Cc1ccc(N2C(=O)c3ccccc3C2=O)cc1 (stereo not shown) [Compound (3), 2-(p-phthalimidobenzyl)-butyric acid ethyl ester]		140 % mg	64 % mg	-33%	-56%	interesting ability to decrease the hematic levels of cholesterol and triglycerides; also recorded: particularly high hypocholesterolemizing and hypolipidemizing activity	189 % mg	390 % mg	-30%	-25%	> 1700 mg/kg				
CCC(Cc1ccc(NC(=O)c2ccccc2C(=O)O)cc1)C(=O)O (stereo not shown) [Compound (6), 2-(p-phthalylaminobenzyl)-butyric acid]		130 % mg	64 % mg	-38%	-56%	interesting ability to decrease the hematic levels of cholesterol and triglycerides; also recorded: particularly high hypocholesterolemizing and hypolipidemizing activity	180 % mg	380 % mg	-32%	-28%	> 2000 mg/kg				
CC(=O)c1ccccc1N1C(=O)c2ccccc2C1=O [o-(N-phthalimido)acetophenone]	more active than Clofibrate in reducing the serum cholesterol percentage and the triglyceride level											decrease the cholesterol absorption at the intestinal level	speed up the excretion of cholesterol with the bile	inhibiting activity in vivo	
CCOC(=O)C(C)(C)Oc1ccc(Cl)cc1 [Clofibrate, reference compound]	ability to decrease the hematic levels of cholesterol and triglycerides	152 % mg	115 % mg	-27%	-22%		218 % mg	420 % mg	-19%	-19%					1280 mg/kg
CC(C)OC(=O)C(C)(C)Oc1ccc(C(=O)c2ccc(Cl)cc2)cc1 [Procetofene]	hypolipidemizing activity lower than that of Bezafibrate														
CCOC(=O)C(CC)Cc1ccc(NC(=O)Cc2ccc(-n3cccc3)cc2)cc1 (stereo not shown) [Compound (5), 2-{4-[4-(1-pyrryl)-phenylacetamido]-benzyl}-butyric acid ethyl ester]		130 % mg	80 % mg	-38%	-45%	interesting ability to decrease the hematic levels of cholesterol and triglycerides; also recorded: particularly high hypocholesterolemizing and hypolipidemizing activity	205 % mg	410 % mg	-24%	-21%	> 2000 mg/kg				
CCC(Cc1ccc(N2C(=O)c3ccccc3C2=O)cc1)C(=O)O (stereo not shown) [Compound (2), 2-(p-phthalimidobenzyl)-butyric acid]		130 % mg	60 % mg	-38%	-59%	interesting ability to decrease the hematic levels of cholesterol and triglycerides; also recorded: particularly high hypocholesterolemizing and hypolipidemizing activity	176 % mg	360 % mg	-35%	-31%	> 2000 mg/kg				
CC(C)(Oc1ccc(CCNC(=O)c2ccc(Cl)cc2)cc1)C(=O)O [Bezafibrate, reference compound]	ability to decrease the hematic levels of cholesterol and triglycerides	139 % mg	100 % mg	-33%	-32%		210 % mg	415 % mg	-22%	-20%					
CCOC(=O)C(CC)Cc1ccc(NC(=O)c2ccc(Cl)cc2)cc1 (stereo not shown) [Compound (4), 2-[4-(p-chlorobenzamido)-benzyl]-butyric acid ethyl ester]		129 % mg	90 % mg	-38%	-39%	interesting ability to decrease the hematic levels of cholesterol and triglycerides; also recorded: particularly high hypocholesterolemizing and hypolipidemizing activity	200 % mg	400 % mg	-26%	-23%	> 2000 mg/kg				
